Assay results: the supplement of paper PMC10307832

Experiments:
Experiment in all cases: relative viability (nuclei count vs DMSO), 5 days (fraction); higher = more cells survive
[1] = compound: CC1=C(C(=NN1)C)CC2=C(C3=C(S2)N(C(=O)N(C3=O)C)CC(C)C)C(=O)N4C[C@@H](CO4)O + COc1cccc2cc(-c3nc([C@H]4CC[C@H](C(=O)O)CC4)n4ncnc(N)c34)[nH]c12 [OSI-027] (partner 0.5 µM)
Method in brief: (§1)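 Lung cancer cell lines, seeded in 1536-well plates, were treated the following day by pin tool with a single drug or with five library-drug doses (not always all listed) in √10 steps on top of a fixed anchor-drug dose. Cells were fixed and nuclei stained in one step after 5 days, and nuclei were counted. Relative viability is the nuclei count for treated wells divided by that for vehicle wells, reported as medians of duplicate plates.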

[2] = compound: CC1=C(C(=NN1)C)CC2=C(C3=C(S2)N(C(=O)N(C3=O)C)CC(C)C)C(=O)N4C[C@@H](CO4)O + CS(=O)(=O)N1CCN(Cc2cc3nc(-c4cccc5[nH]ncc45)nc(N4CCOCC4)c3s2)CC1 [Pictilisib] (partner 1 µM)
Method in brief: as §1

[3] = compound: CC1=C(C(=NN1)C)CC2=C(C3=C(S2)N(C(=O)N(C3=O)C)CC(C)C)C(=O)N4C[C@@H](CO4)O + C[C@]1(O)C[C@@H](c2nc(-c3ccc4ccc(-c5ccccc5)nc4c3)c3c(N)nccn32)C1 [Linsitinib] (partner 1 µM)
Method in brief: as §1

[4] = compound: CC1=C(C(=NN1)C)CC2=C(C3=C(S2)N(C(=O)N(C3=O)C)CC(C)C)C(=O)N4C[C@@H](CO4)O + Cc1cc(Nc2cc(N3CCN(C)CC3)nc(Sc3ccc(NC(=O)C4CC4)cc3)n2)n[nH]1 [Tozasertib] (partner 0.1 µM)
Method in brief: as §1

| Cell Line | relative viability ([1]; first compound 0.0025 µM) | relative viability ([1]; first compound 0.007906 µM) | relative viability ([1]; first compound 0.025 µM) | relative viability ([1]; first compound 0.07906 µM) | relative viability ([1]; first compound 0.25 µM) | relative viability ([2]; first compound 0.0025 µM) | relative viability ([2]; first compound 0.007906 µM) | relative viability ([2]; first compound 0.025 µM) | relative viability ([2]; first compound 0.07906 µM) | relative viability ([2]; first compound 0.25 µM) | relative viability ([3]; first compound 0.0025 µM) | relative viability ([3]; first compound 0.007906 µM) | relative viability ([3]; first compound 0.025 µM) | relative viability ([3]; first compound 0.07906 µM) | relative viability ([3]; first compound 0.25 µM) | relative viability ([4]; first compound 0.0025 µM) | relative viability ([4]; first compound 0.007906 µM) | relative viability ([4]; first compound 0.025 µM) | relative viability ([4]; first compound 0.07906 µM) | relative viability ([4]; first compound 0.25 µM) |
| --- | --- | --- | --- | --- | --- | --- | --- | --- | --- | --- | --- | --- | --- | --- | --- | --- | --- | --- | --- | --- |
| LOU-NH91 | 0.719 | 0.714 | 0.715 | 0.84 | 0.727 | 0.503 | 0.494 | 0.495 | 0.571 | 0.529 | 0.958 | 0.843 | 1.06 | 1.12 | 1.02 | 0.723 | 0.674 | 0.709 | 0.792 | 0.838 |
| LU99A | 0.339 | 0.335 | 0.347 | 0.309 | 0.294 | 0.351 | 0.314 | 0.331 | 0.345 | 0.327 | 0.592 | 0.542 | 0.522 | 0.583 | 0.567 | 0.24 | 0.285 | 0.279 | 0.274 | 0.283 |
| LXF-289 | 0.902 | 0.785 | 0.734 | 0.819 | 0.749 | 0.862 | 0.82 | 0.779 | 0.804 | 0.826 | 1.02 | 0.919 | 0.957 | 0.953 | 1.04 | 0.205 | 0.213 | 0.18 | 0.186 | 0.22 |
| NCI-H23 | 0.814 | 0.557 | 0.701 | 0.475 | 0.602 | 0.528 | 0.489 | 0.523 | 0.494 | 0.651 | 0.521 | 0.548 | 0.516 | 0.565 | 0.777 | 0.784 | 0.42 | 0.412 | 0.334 | 0.388 |
| NCI-H322M | 0.529 | 0.539 | 0.483 | 0.64 | 0.5 | 0.519 | 0.504 | 0.562 | 0.58 | 0.5 | 0.92 | 0.975 | 0.942 | 0.899 | 0.722 | 0.532 | 0.485 | 0.454 | 0.495 | 0.461 |
| NCI-H358 | 0.679 | 0.724 | 0.845 | 0.895 | 0.854 | 0.41 | 0.348 | 0.359 | 0.375 | 0.375 | 0.707 | 0.794 | 0.801 | 0.892 | 0.998 | 0.12 | 0.0943 | 0.0965 | 0.11 | 0.112 |
| NCI-H441 | 0.601 | 0.634 | 0.707 | 0.665 | 0.677 | 0.575 | 0.446 | 0.431 | 0.616 | 0.656 | 0.59 | 0.491 | 0.493 | 0.53 | 0.615 | 0.657 | 0.647 | 0.575 | 0.664 | 0.623 |
| NCI-H460 | 0.718 | 0.821 | 0.683 | 0.648 | 0.779 | 0.432 | 0.492 | 0.356 | 0.367 | 0.387 | 0.736 | 0.577 | 0.789 | 1.09 | 1.19 | 0.493 | 0.337 | 0.494 | 0.479 | 0.54 |
| NCI-H520 | 0.276 | 0.281 | 0.27 | 0.277 | 0.193 | 0.32 | 0.259 | 0.304 | 0.269 | 0.288 | 0.87 | 0.902 | 0.528 | 0.409 | 0.552 | 0.406 | 0.433 | 0.432 | 0.445 | 0.407 |
| NCI-H596 | 0.721 | 0.822 | 0.889 | 0.803 | 0.715 | 0.387 | 0.369 | 0.387 | 0.431 | 0.593 | 1.02 | 1.14 | 1.08 | 1.13 | 1.13 | 0.976 | 1.07 | 1.04 | 0.94 | 0.889 |
| NCI-H647 | 0.727 | 0.805 | 0.805 | 0.769 | 0.569 | 0.494 | 0.444 | – | 0.525 | 0.483 | 1.33 | 1.37 | 1.33 | 1.24 | 1.44 | 0.2 | 0.265 | 0.269 | 0.189 | 0.322 |
| NCI-H650 | 0.637 | 0.509 | 0.501 | 0.451 | 0.647 | 0.898 | 0.826 | 0.819 | 0.824 | 0.926 | 1.03 | 0.973 | 0.63 | 0.858 | 0.791 | 0.77 | 0.747 | 0.702 | 0.692 | 0.739 |
| NCI-H661 | 0.783 | 0.636 | 0.663 | 0.677 | 0.862 | 0.473 | 0.41 | 0.378 | 0.379 | 0.385 | 0.593 | 0.636 | 0.603 | 0.762 | 0.463 | 0.344 | 0.372 | 0.354 | 0.341 | 0.353 |
| NCI-H727 | 0.731 | 0.504 | 0.505 | 0.586 | 0.708 | 0.403 | 0.483 | 0.336 | 0.385 | 0.517 | 0.233 | 0.324 | 0.386 | 0.259 | 0.247 | 0.676 | 0.788 | 0.696 | 0.513 | 0.513 |
| NCI-H838 | 0.396 | 0.451 | 0.409 | 0.384 | 0.387 | 0.506 | 0.507 | 0.607 | 0.511 | 0.552 | 1.02 | 1.08 | 0.987 | 1.02 | 1.04 | 0.268 | 0.25 | 0.212 | 0.22 | 0.242 |
| NCI-H1355 | 0.458 | 0.441 | 0.425 | 0.464 | 0.39 | 0.45 | 0.562 | 0.528 | 0.405 | 0.5 | 0.889 | 0.927 | 0.867 | 0.791 | 0.785 | 0.527 | 0.437 | 0.529 | 0.566 | 0.623 |
| NCI-H1395 | 0.658 | 0.603 | 0.409 | 0.578 | 0.58 | 0.63 | 0.598 | 0.525 | 0.634 | 0.735 | 0.965 | 0.902 | 0.917 | 0.988 | 0.89 | 0.757 | 0.681 | 0.581 | 0.592 | 0.599 |
| NCI-H1437 | 0.894 | 0.892 | 0.867 | 0.93 | 0.857 | 0.461 | 0.44 | 0.451 | 0.46 | 0.465 | 1.03 | 1.21 | 1.01 | 1.1 | 1.08 | 0.399 | 0.409 | 0.408 | 0.409 | 0.438 |
| NCI-H1651 | 0.726 | 0.734 | 0.846 | 0.659 | 0.662 | 0.579 | 0.634 | 0.651 | 0.558 | 0.52 | 1.03 | 1.26 | 0.944 | 0.908 | 1.06 | 0.702 | 0.802 | 0.58 | 0.625 | 0.767 |
| NCI-H1666 | 0.881 | 0.927 | 0.811 | 0.8 | 0.944 | 0.405 | 0.399 | 0.53 | 0.482 | 0.406 | 0.834 | 0.839 | 1.06 | 0.884 | 0.847 | 0.599 | 0.661 | 0.592 | 0.806 | 0.633 |
| NCI-H1734 | 0.682 | 0.592 | 0.65 | 0.617 | 0.624 | 0.474 | 0.544 | 0.488 | 0.473 | 0.486 | 0.925 | 1.05 | 0.861 | 0.947 | 0.881 | 0.309 | 0.248 | 0.25 | 0.234 | 0.259 |
| NCI-H1755 | 0.767 | 0.743 | 0.684 | 0.702 | 0.704 | 0.445 | 0.42 | 0.44 | 0.479 | 0.497 | 1.05 | 1.03 | 0.975 | 0.957 | 0.976 | 0.71 | 0.571 | 0.543 | 0.486 | 0.593 |
| NCI-H1793 | 0.298 | 0.289 | 0.262 | 0.242 | 0.231 | 0.308 | 0.395 | 0.166 | 0.226 | 0.272 | 0.726 | 0.868 | 0.834 | 0.66 | 0.926 | 0.453 | 0.28 | 0.327 | 0.271 | 0.24 |
| NCI-H1915 | 0.647 | 0.667 | 0.646 | 0.694 | 0.659 | 0.965 | 0.927 | 0.897 | 0.878 | 0.975 | 1.12 | 1.13 | 1.08 | 1.05 | 1.17 | 0.443 | 0.436 | 0.446 | 0.446 | 0.45 |
| NCI-H1944 | 0.434 | 0.45 | 0.416 | 0.427 | 0.391 | 0.351 | 0.376 | 0.356 | 0.389 | 0.386 | 1.13 | 1.1 | 1.27 | 1.15 | 1.07 | 0.263 | 0.269 | 0.246 | 0.25 | 0.253 |
| NCI-H1975 | 0.751 | 0.648 | 0.802 | 0.804 | 0.879 | 0.324 | 0.298 | 0.293 | 0.301 | 0.315 | 0.956 | 1.04 | 1 | 0.949 | 1.08 | 0.801 | 0.682 | 0.791 | 0.905 | 0.739 |
